IC50 and EC50 data for 17 compounds are collected here from US20250206738A1, “WRN INHIBITORS” (Nimbus Wadjet, Inc., priority 2023, published 2025).

Experiment [1] has as its target T1, human Werner helicase (WRN, Uniprot Q14191, amino acids 517-1235 with L1074F point mutation; WRN-BV08) (Homo sapiens, UniProt Q14191, L1074F).
T1 construct: Uniprot Q14191, amino acids 517-1235 with L1074F point mutation; 8xHis (C, cleaved yes); TEV cleavage site (ENLYFQG) (C, cleaved yes); made in house; host or cells: Sf9 insect cells (baculovirus, pFastBac)
In words: WRN (BV08) ADP-Glo assay. In kind it is biochemical. The conditions noted are these: WRN-BV08 (aa 517-1235, L1074F); read-out: ADP-Glo_hWRN_IC50. An outline of the steps: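 WRN 517-1235 (L1074F, untagged, Sf9-expressed), 0.15 nM, preincubated with compound 15 min at 25 °C, then 60 min with […] and 0.1 nM DNA duplex in Bicine pH 7.5, 1 mM MgCl2, 1% DMSO. ADP-Glo luminescence; % inhibition vs NSC-617145 control, four-parameter IC50 fit.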

The test system of experiment [2] is p21 induction in HCT 116 cells. In words: p21 induction in cells (In-Cell Western, p21/GAPDH ratio). The class given is cell-based. The note with it: Homo sapiens, HCT-116, 24 h, 24 h compound incubation, read-out: P21_EC50. The method, boiled down:
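HCT 116 cells treated 24 h at 37° C with 11-point, 2-fold dilutions starting typically at 10 μM, in duplicate. Fixed cells immunostained for p21 and GAPDH; 800/700 nm ratio normalised between DMSO and reference WRN inhibitor controls as percent activation. EC50 from non-linear regression.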

pEC50, pIC50: −log10 of the molar value.

T1 sequence (Q14191 with tags, fused parts or gaps L1074F): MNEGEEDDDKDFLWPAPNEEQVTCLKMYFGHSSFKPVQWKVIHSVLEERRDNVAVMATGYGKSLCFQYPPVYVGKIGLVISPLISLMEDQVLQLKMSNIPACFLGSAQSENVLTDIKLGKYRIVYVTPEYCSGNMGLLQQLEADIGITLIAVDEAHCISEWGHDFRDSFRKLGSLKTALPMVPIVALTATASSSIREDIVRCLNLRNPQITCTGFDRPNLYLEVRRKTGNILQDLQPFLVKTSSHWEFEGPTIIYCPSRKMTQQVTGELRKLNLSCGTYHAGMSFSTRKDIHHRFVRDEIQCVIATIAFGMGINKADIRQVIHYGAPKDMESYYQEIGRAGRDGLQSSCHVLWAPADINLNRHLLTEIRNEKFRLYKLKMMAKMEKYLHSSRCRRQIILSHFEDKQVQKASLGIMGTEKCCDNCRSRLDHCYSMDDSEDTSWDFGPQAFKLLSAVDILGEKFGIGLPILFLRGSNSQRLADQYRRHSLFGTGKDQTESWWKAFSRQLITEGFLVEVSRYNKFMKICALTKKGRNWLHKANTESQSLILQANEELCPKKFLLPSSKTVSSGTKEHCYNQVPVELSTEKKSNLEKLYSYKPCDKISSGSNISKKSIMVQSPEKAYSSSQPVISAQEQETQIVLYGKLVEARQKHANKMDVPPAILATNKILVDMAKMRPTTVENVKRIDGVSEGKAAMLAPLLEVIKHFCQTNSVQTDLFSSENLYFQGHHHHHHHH

On to `CCc1c(N2CCN(C(=O)c3cccc4ncoc34)[C@H]3CC[C@@H]32)c(=O)n2nc(C3=CCOCC3)nc2n1CC(=O)NC12CC(C(C)C)(C1)C2` [I-214, 2-(6-((1S,6S)-5-(benzo[d]oxazole-7-carbonyl)-2,5-diazabicyclo[4.2.0]octan-2-yl)-2-(3,6-dihydro-2H-pyran-4-yl)-5-ethyl-7-oxo-[1,2,4]triazolo[1,5-a]pyrimidin-4(7H)-yl)-N-(3-isopropylbicyclo[1.1.1]pentan-1-yl)acetamide], for which the pIC50 in experiment [1] is 7.30 to 8.30. In addition, the pEC50 in experiment [2] is 5.70 to 6.30.

`CCc1c(N2CCN(C(=O)c3ncnc(C)c3O)[C@H]3CC[C@@H]32)c(=O)n2nc(-c3ccnc(OC)c3)nc2n1CC(=O)NC12CC(C3CC3)(C1)C2` [I-208, N-(3-cyclopropylbicyclo[1.1.1]pentan-1-yl)-2-(5-ethyl-6-((1S,6S)-5-(5-hydroxy-6-methylpyrimidine-4-carbonyl)-2,5-diazabicyclo[4.2.0]octan-2-yl)-2-(2-methoxypyridin-4-yl)-7-oxo-[1,2,4]triazolo[1,5-a]pyrimidin-4(7H)-yl)acetamide]: in experiment [1], the pIC50 is 7.30 to 8.30. Moreover, the pEC50 in experiment [2] was at least 6.30.

Regarding `CCc1c(N2CCN(C(=O)c3ncnc(C)c3O)CC2)c(=O)n2nc(-c3ccnc(OC)c3)nc2n1CC(=O)N[C@H]1CC[C@H](C(F)(F)F)CC1` [I-242, 2-(5-ethyl-6-(4-(5-hydroxy-6-methylpyrimidine-4-carbonyl)piperazin-1-yl)-2-(2-methoxypyridin-4-yl)-7-oxo-[1,2,4]triazolo[1,5-a]pyrimidin-4(7H)-yl)-N-((1r,4r)-4-(trifluoromethyl)cyclohexyl)acetamide], the pIC50 in experiment [1] was 6.30 to 7.00. For the same compound, in experiment [2], the pEC50 was under 5.30.

Consider `CCc1c(N2CCN(C(=O)c3cnn(C)c3)CC2)c(=O)n2nc(-c3ccnc(OC)c3)nc2n1CC(=O)NC1CC2(C1)CC2F` (stereo not shown) [I-247, 2-(5-ethyl-2-(2-methoxypyridin-4-yl)-6-(4-(1-methyl-1H-pyrazole-4-carbonyl)piperazin-1-yl)-7-oxo-[1,2,4]triazolo[1,5-a]pyrimidin-4(7H)-yl)-N-(1-fluorospiro[2.3]hexan-5-yl)acetamide], for which, in experiment [1], the pIC50 was 6.30 to 7.00. The pEC50 in experiment [2] was under 5.30.

For the compound `CCc1c(N2CCN(C(=O)c3ncnc(C)c3O)C(C)(C)C2)c(=O)c2nn(-c3ccnc(OC)c3)nc2n1CC(=O)NC12CC(C3CC3)(C1)C2` [I-228, N-(3-cyclopropylbicyclo[1.1.1]pentan-1-yl)-2-(5-ethyl-6-(4-(5-hydroxy-6-methylpyrimidine-4-carbonyl)-3,3-dimethylpiperazin-1-yl)-2-(2-methoxypyridin-4-yl)-7-oxo-2,7-dihydro-4H-[1,2,3]triazolo[4,5-b]pyridin-4-yl)acetamide], the pIC50 in experiment [1] is 7.30 to 8.30. Besides, the pEC50 in experiment [2] is 5.70 to 6.30.

As for `CCc1c(N2CCN(C(=O)c3ncnc(C)c3O)[C@H]3CC[C@@H]32)c(=O)c2nc(C)c(C)nc2n1CC(=O)NC12CC(C3CC3)(C1)C2` [I-227, N-(3-cyclopropylbicyclo[1.1.1]pentan-1-yl)-2-(6-ethyl-7-((1S,6S)-5-(5-hydroxy-6-methylpyrimidine-4-carbonyl)-2,5-diazabicyclo[4.2.0]octan-2-yl)-2,3-dimethyl-8-oxopyrido[2,3-b]pyrazin-5(8H)-yl)acetamide], the pIC50 in experiment [1] is 7.30 to 8.30. For the same compound, the pEC50 in experiment [2] is 5.70 to 6.30.

`CCc1c(N2CCN(C(=O)c3ncnc(C)c3O)[C@H]3CC[C@@H]32)c(=O)c2nc(N(C)C)cnc2n1CC(=O)NC12CC(C(F)(F)F)(C1)C2` (relative stereo) [I-2, rel-2-(2-(dimethylamino)-6-ethyl-7-((1S,6S)-5-(5-hydroxy-6-methylpyrimidine-4-carbonyl)-2,5-diazabicyclo[4.2.0]octan-2-yl)-8-oxopyrido[2,3-b]pyrazin-5(8H)-yl)-N-(3-(trifluoromethyl)bicyclo[1.1.1]pentan-1-yl)acetamide]: the pIC50 in experiment [1] is 6.30 to 7.00. Further, the pEC50 in experiment [2] is under 5.30.

In the case of `CCc1c(N2CCN(C(=O)c3ncc4c(c3O)CCO4)CC2)c(=O)n2nc(C3=CCOCC3)nc2n1CC(=O)NC12CC(C(C)(F)F)(C1)C2` [I-7, N-(3-(1,1-difluoroethyl)bicyclo[1.1.1]pentan-1-yl)-2-(2-(3,6-dihydro-2H-pyran-4-yl)-5-ethyl-6-(4-(4-hydroxy-2,3-dihydrofuro[2,3-c]pyridine-5-carbonyl)piperazin-1-yl)-7-oxo-[1,2,4]triazolo[1,5-a]pyrimidin-4(7H)-yl)acetamide], the pIC50 in experiment [1] was 7.30 to 8.30. The pEC50 in experiment [2] was 5.30 to 5.70.

Take `CCc1c(N2CCN(C(=O)c3ncnc(C)c3O)[C@H]3CC[C@@H]32)c(=O)c2nn(C3=CCOC(C)C3)nc2n1CC(=O)NC12CC(C3CC3)(C1)C2` (single isomer, unassigned) [I-169]: the pIC50 in experiment [1] is 7.30 to 8.30. Also, in experiment [2], the pEC50 was at least 6.30.

Regarding `CCc1c(N2CCN(C(=O)c3ncnc(C)c3O)[C@H]3CC[C@@H]32)c(=O)c2nc(N(C)C)cnc2n1CC(=O)NC12CC(C3CCCC3)(C1)C2` [I-224, N-(3-cyclopentylbicyclo[1.1.1]pentan-1-yl)-2-(2-(dimethylamino)-6-ethyl-7-((1S,6S)-5-(5-hydroxy-6-methylpyrimidine-4-carbonyl)-2,5-diazabicyclo[4.2.0]octan-2-yl)-8-oxopyrido[2,3-b]pyrazin-5(8H)-yl)acetamide], the pIC50 in experiment [1] is 7.30 to 8.30. In experiment [2], the pEC50 is 5.70 to 6.30.

For `CCc1c(N2CCN(C(=O)c3cnn(C)c3)CC2)c(=O)n2nc(-c3ccnc(OC)c3)nc2n1CC(=O)NC1Cc2ccc(F)cc2C1` (stereo not shown) [I-246, 2-(5-ethyl-2-(2-methoxypyridin-4-yl)-6-(4-(1-methyl-1H-pyrazole-4-carbonyl)piperazin-1-yl)-7-oxo-[1,2,4]triazolo[1,5-a]pyrimidin-4(7H)-yl)-N-(5-fluoro-2,3-dihydro-1H-inden-2-yl)acetamide], the pIC50 in experiment [1] is 6.30 to 7.00. Besides, in experiment [2], the pEC50 was under 5.30.

For `CCc1c(N2CCN(C(=O)c3c(OC)ncc(C)c3O)CC2)c(=O)n2nc(C3=CCOCC3)nc2n1CC(=O)NC12CC(C(F)(F)F)(C1)C2` [I-236, 2-(2-(3,6-dihydro-2H-pyran-4-yl)-5-ethyl-6-(4-(4-hydroxy-2-methoxy-5-methylnicotinoyl)piperazin-1-yl)-7-oxo-[1,2,4]triazolo[1,5-a]pyrimidin-4(7H)-yl)-N-(3-(trifluoromethyl)bicyclo[1.1.1]pentan-1-yl)acetamide], the pIC50 in experiment [1] is 7.30 to 8.30. Besides, the pEC50 in experiment [2] was 5.30 to 5.70.

For `CCc1c(N2CCN(C(=O)c3c(O)ccc4ncoc34)CC2)c(=O)n2nc(-c3ccnc(OC)c3)nc2n1CC(=O)NC12CC(CC)(C1)C2` [I-23, 2-(5-ethyl-6-(4-(6-hydroxybenzo[d]oxazole-7-carbonyl)piperazin-1-yl)-2-(2-methoxypyridin-4-yl)-7-oxo-[1,2,4]triazolo[1,5-a]pyrimidin-4(7H)-yl)-N-(3-ethylbicyclo[1.1.1]pentan-1-yl)acetamide], in experiment [1], the pIC50 is 7.30 to 8.30. In addition, the pEC50 in experiment [2] was at least 6.30.

Regarding `CCc1c(N2CCN(C(=O)c3ncnc(C)c3O)CC2)c(=O)n2nc(C3=CCOCC3)nc2n1CC(=O)NC12COC(C(F)(F)F)(C1)C2` [I-26, 2-(2-(3,6-dihydro-2H-pyran-4-yl)-5-ethyl-6-(4-(5-hydroxy-6-methylpyrimidine-4-carbonyl)piperazin-1-yl)-7-oxo-[1,2,4]triazolo[1,5-a]pyrimidin-4(7H)-yl)-N-(1-(trifluoromethyl)-2-oxabicyclo[2.1.1]hexan-4-yl)acetamide], the pIC50 in experiment [1] is 6.30 to 7.00. Also, the pEC50 in experiment [2] is under 5.30.

Turning to `CCc1c(N2CCN(C(=O)c3c(O)ccc4ncoc34)CC2)c(=O)n2nc(-c3ccnc(OC)c3)nc2n1CCNC(=O)C12CC(C(F)(F)F)(C1)C2` [I-34, N-(2-(5-ethyl-6-(4-(6-hydroxybenzo[d]oxazole-7-carbonyl)piperazin-1-yl)-2-(2-methoxypyridin-4-yl)-7-oxo-[1,2,4]triazolo[1,5-a]pyrimidin-4(7H)-yl)ethyl)-3-(trifluoromethyl)bicyclo[1.1.1]pentyl-1-carboxamide], the pIC50 in experiment [1] is under 6.30. The pEC50 in experiment [2] is under 5.30.

`CCc1c(N2CCN(C(=O)c3c(O)ccc4ncoc34)CC2)c(=O)n2nc(-c3ccnc(OC)c3)nc2n1CC(=O)NC12CC(OC)(C1)C2` [I-241, 2-(5-ethyl-6-(4-(6-hydroxybenzo[d]oxazole-7-carbonyl)piperazin-1-yl)-2-(2-methoxypyridin-4-yl)-7-oxo-[1,2,4]triazolo[1,5-a]pyrimidin-4(7H)-yl)-N-(3-methoxybicyclo[1.1.1]pentan-1-yl)acetamide]: in experiment [1], the pIC50 was 6.30 to 7.00. For the same compound, the pEC50 in experiment [2] was under 5.30.

On to `CCc1c(N2CCN(C(=O)c3ncnc(C)c3O)CC2)c(=O)n2nc(C3=CCOCC3)nc2n1CC(=O)NC12CC(C3CC3)(C1)C2` [I-32, N-(3-cyclopropylbicyclo[1.1.1]pentan-1-yl)-2-(2-(3,6-dihydro-2H-pyran-4-yl)-5-ethyl-6-(4-(5-hydroxy-6-methylpyrimidine-4-carbonyl)piperazin-1-yl)-7-oxo-[1,2,4]triazolo[1,5-a]pyrimidin-4(7H)-yl)acetamide], for which, in experiment [1], the pIC50 was 7.30 to 8.30. In addition, the pEC50 in experiment [2] was 5.30 to 5.70.
